Data published in patent US11254700B2, “GSK-3β inhibitors and use thereof in methods of treatment” (UNIVERSITY OF HAWAII, priority 2017, dated 2022).
“Also recorded” adds a separate entry of the source.

Key:
[1] = system: SH-SY5Y cells treated with Aβ42 oligomers; test: Anti-Aβ42 neurotoxicity assay; format: cell-based, human
Experimental: Human neuroblastoma SH-SY5Y cell line (Sigma-Aldrich, Saint Louis, Mo.) was cultured in DMEM/F12 (v/v 1:1) media supplemented with 2 mM glutamine, 10% heat-inactivated fetal bovine serum (FBS) and 1% antibiotics including penicillin and streptomycin. After reaching 70-80% confluence, cells were then subcultured on poly-L-lysine plates with 10 μM retinoic acid in a reduced serum media (1% FBS) to promote neuronal maturation and differentiation as described (Agholme, et al. (2010) J. Alzheimer's Dis. 20: 1069-1082). Cell cultures were incubated at 37° C. in a fully humidified atmosphere containing 5% CO2.
The toxic oligomers of Aβ42 were prepared as described (Liang, et al. (2016) ACS Chem. Neurosci. 7:912-923). Briefly, lyophilized Aβ42 peptide was dissolved in hexafluoroisopropanol, dried under vacuum, and stored at −20° C. Immediately prior to use, the peptide residue was reconstituted in DMEM/F12 media to make a stock solution at 0.1 mM and incubated at 4° C. for 24 hours to form diffusible oligomers. Aβ42 oligomers at a final concentration of 10 μM were assayed for cell viability.
SH-SY5Y cells were seeded at a density of 3×10^5 cells/mL in a 96-well plate in DMEM/F12 media containing 10 μM retinoic acid and 1% FBS to suppress cell proliferation. Cells were incubated under regular culture conditions for attachment. After 24 hours of plating, the cells were pretreated with different concentrations of test samples or the 0.2% DMSO as a vehicle control for 1 hour and then co-incubated with 10 μM Aβ42 for 72 hours. After the experimental treatment, the cells were subject to a […]® 96 AQueous One Solution Cell Proliferation […] Assay according to the manufacturer's instruction. […] Each data point was collected in triplicate of two independent experiments.

[2] = system: amyloid plaques; test: Thioflavin-S staining of brain plaques; format: in vivo, mouse; set-up: dose or concentration left out as unconfirmed; conditions: more pronounced with increasing dose
Experimental: The backgrounds of all mice (APP/PS1 dual transgenic mice and wild-type mice with littermates) were C57/B6. Transgenic mice were randomly divided into three groups (n=20 for each group), and wild-type mice were used as controls (n=20). […] Throughout the study-period, animals were housed in a controlled environment (temperature, 22° C.; humidity, 50-60%, 12-hour light/12-hour dark schedules), with free access to rodent chow and water. After a Morris water maze test, mice were perfused with cold phosphate-buffered saline (PBS), brain tissues were dissected and kept frozen at −80° C. until further analysis. […] The brain tissue was then embedded in an OCT agent and placed at −80° C. for storage until use. […] The Thio-S staining procedure was according to known methods (Maiti, et al. (2016) Histochem. Cell Biol. 146(5):609-625). Briefly, Thio-S solution at 0.1% (w/v) was prepared by dissolving 0.1 gram of Thioflavin-S(Sigma-Aldrich) in 50% ethanol (v/v). The tissue sections were washed three times with PBS for five minutes each time. The sections were incubated with 0.1% Thio-S for 10 minutes, dipping them three times in 50% ethanol (v/v) for 10 minutes each time, and finally washing once in PBS, before being mounted, as described above. The sections were visualized using a fluorescence microscope (Leica, Germany), with excitation/emission filters (480/550 nm).

[3] = target: GSK-3β (Homo sapiens, UniProt P49841); test: Kinase luminescent assay (ADP-Glo), GSK-3β inhibition; format: biochemical; conditions: 25 μM ATP, 1 hour, room temperature; mean of quadruplicate of two experiments; read-out: IC50 against GSK-3β
Experimental: Kinase Luminescent Assay.
Kinase inhibition was assessed with the ADP-Glo Kinase Assay. […] The reaction mixture was incubated for 1 hour at room temperature followed by the addition of the ADP-Glo′ reagents according to the manufacturer's protocol. The kinase inhibitor staurosporine was used at 1 μM as a reference control. Each data point was collected in quadruplicate of two independent experiments.

[4] = system: Aβ42; test: Brain Aβ42 by ELISA; format: in vivo, mouse; conditions: vs model group
Experimental: The backgrounds of all mice (APP/PS1 dual transgenic mice and wild-type mice with littermates) were C57/B6. Transgenic mice were randomly divided into three groups (n=20 for each group), and wild-type mice were used as controls (n=20). The control group and one group of transgenic mice (model group) were given sterilized ultrapure water, and the other two groups of transgenic mice received low- and high-dose Isoorientin (20 and 50 mg/kg, respectively) via intragastric administration for 60 days. Throughout the study-period, animals were housed in a controlled environment (temperature, 22° C.; humidity, 50-60%, 12-hour light/12-hour dark schedules), with free access to rodent chow and water. […] For quantitation purposes, a highly specific and sensitive mouse Aβ42 ELISA kit was used (Invitrogen Corporation, Carlsbad, Calif.). Brain tissue protein was extracted by homogenizing about 100 mg brain tissue with an 8-fold mass quantity of cold 5 M guanidine-HCl and 50 mM Tris (pH 8.0), and incubating the homogenate at room temperature for 3.5 hours. […] Soluble and insoluble brain samples including cortex and hippocampus were analyzed for Aβ levels using the mouse Aβ42 ELISA kit, according to the manufacturer's instructions. […] The obtained values were corrected for the wet weight of each brain sample and expressed as μg/mg brain.

GSK-3β, sequence (P49841 whole entry): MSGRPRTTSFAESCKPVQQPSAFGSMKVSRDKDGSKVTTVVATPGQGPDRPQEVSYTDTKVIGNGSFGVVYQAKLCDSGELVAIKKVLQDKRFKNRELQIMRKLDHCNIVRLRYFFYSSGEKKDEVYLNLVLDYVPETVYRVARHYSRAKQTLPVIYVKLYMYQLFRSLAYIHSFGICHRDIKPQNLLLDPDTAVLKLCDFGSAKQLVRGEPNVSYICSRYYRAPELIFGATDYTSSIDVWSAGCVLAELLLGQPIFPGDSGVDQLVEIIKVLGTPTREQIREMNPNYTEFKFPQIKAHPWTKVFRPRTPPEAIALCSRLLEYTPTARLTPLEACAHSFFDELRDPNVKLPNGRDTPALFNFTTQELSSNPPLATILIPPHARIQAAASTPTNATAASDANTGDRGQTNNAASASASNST

With O=c1cc(-c2ccc(O)c(O)c2)oc2cc(O)c([C@@H]3O[C@H](CO)[C@@H](O)[C@H](O)[C@H]3O)c(O)c12 [Compound 1, isoorientin] the EC50 ([1]; Homo sapiens, SH-SY5Y, 1 hour pretreatment, 10 μM Aβ42, 72 hours, read-out: neuroprotective potency EC50) was 47 µM, the “effective dose, morphological protection from Aβ42 intoxication” value ([1]; morphological observations) was 200 μM and the thioflavin-S-positive plaques [2] was “reduced”. The IC50 [3] was 185 µM, the “Aβ42 in brain (cortex+hippocampus)” value ([4]; high-dose group 50 mg/kg, oral, 60 days) was “significantly lower; also recorded: significant decrease” and the “Aβ42 in brain (cortex+hippocampus)” value ([4]; low-dose group) was “no statistically significant difference”.
